From PubChem BioAssay (NCI)
“And” between values parts separate entries of the source, which are not always exact repeats. Equal values may be shown once.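 These data come from cells grown in 96-well plates and exposed to compound for 48 hours at five concentrations. GI50 is the concentration that inhibits growth by half. TGI: concentration producing complete growth inhibition.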

Tests used:
Assay in all cases: NCI tumour cell line growth inhibition, 48 h
OVCAR-4 ovarian = system: OVCAR-4 ovarian
CCRF-CEM leukemia = system: CCRF-CEM leukemia
786-0 renal = system: 786-0 renal
RXF-631 renal = system: RXF-631 renal
U251 CNS = system: U251 CNS
XF 498 CNS = system: XF 498 CNS
HCC-2998 colon = system: HCC-2998 colon
SNB-19 CNS = system: SNB-19 CNS
MALME-3M melanoma = system: MALME-3M melanoma
SR leukemia = system: SR leukemia
NCI-H522 lung = system: NCI-H522 lung
SK-MEL-5 melanoma = system: SK-MEL-5 melanoma
SK-MEL-28 melanoma = system: SK-MEL-28 melanoma
NCI-H23 lung = system: NCI-H23 lung
SNB-75 CNS = system: SNB-75 CNS
A498 renal = system: A498 renal
SK-OV-3 ovarian = system: SK-OV-3 ovarian
M19-MEL melanoma = system: M19-MEL melanoma
K-562 leukemia = system: K-562 leukemia
TK-10 renal = system: TK-10 renal
KM12 colon = system: KM12 colon
RXF 393 renal = system: RXF 393 renal
SF-539 CNS = system: SF-539 CNS
UACC-257 melanoma = system: UACC-257 melanoma
SF-268 CNS = system: SF-268 CNS
SF-295 CNS = system: SF-295 CNS
HCT-15 colon = system: HCT-15 colon
ACHN renal = system: ACHN renal
UO-31 renal = system: UO-31 renal
DMS 273 small cell lung = system: DMS 273 small cell lung
HL-60(TB) leukemia = system: HL-60(TB) leukemia
NCI-H460 lung = system: NCI-H460 lung
UACC-62 melanoma = system: UACC-62 melanoma
SW-620 colon = system: SW-620 colon
EKVX NSCLC = system: EKVX NSCLC
SK-MEL-2 melanoma = system: SK-MEL-2 melanoma
MOLT-4 leukemia = system: MOLT-4 leukemia
HOP-62 NSCLC = system: HOP-62 NSCLC
OVCAR-3 ovarian = system: OVCAR-3 ovarian
SN12C renal = system: SN12C renal
HCT-116 colon = system: HCT-116 colon
M14 melanoma = system: M14 melanoma
OVCAR-5 ovarian = system: OVCAR-5 ovarian
OVCAR-8 ovarian = system: OVCAR-8 ovarian
DLD-1 colon = system: DLD-1 colon
CAKI-1 renal = system: CAKI-1 renal
HT29 colon = system: HT29 colon
HOP-18 NSCLC = system: HOP-18 NSCLC
IGROV1 ovarian = system: IGROV1 ovarian
NCI/ADR-RES ovarian = system: NCI/ADR-RES ovarian
MCF7 breast = system: MCF7 breast
KM20L2 colon = system: KM20L2 colon
SNB-78 CNS = system: SNB-78 CNS
HS 578T breast = system: HS 578T breast
MDA-MB-435 = system: MDA-MB-435
RPMI-8226 leukemia = system: RPMI-8226 leukemia
BT-549 breast = system: BT-549 breast
MDA-N = system: MDA-N
DMS 114 small cell lung = system: DMS 114 small cell lung
NCI-H226 lung = system: NCI-H226 lung
DU-145 prostate = system: DU-145 prostate
MDA-MB-231 breast = system: MDA-MB-231 breast
LXFL 529 NSCLC = system: LXFL 529 NSCLC
A549 NSCLC = system: A549 NSCLC
COLO 205 colon = system: COLO 205 colon
LOX IMVI melanoma = system: LOX IMVI melanoma
HOP-92 NSCLC = system: HOP-92 NSCLC
PC-3 prostate = system: PC-3 prostate

## Cc1cc(NCCCCCCNc2cc(C)nc3cc(N(C)C)ccc23)c2ccc(N(C)C)cc2n1
OVCAR-4 ovarian
  TGI: > 100000 nM
CCRF-CEM leukemia
  TGI: > 100000 nM
786-0 renal
  TGI: > 100000 nM
RXF-631 renal
  TGI: > 100000 nM
U251 CNS
  TGI: > 100000 nM
XF 498 CNS
  TGI: 59000 nM
HCC-2998 colon
  TGI: > 100000 nM
SNB-19 CNS
  TGI: 92700 nM
MALME-3M melanoma
  TGI: 62600 nM
SR leukemia
  TGI: > 100000 nM
NCI-H522 lung
  TGI: > 100000 nM
SK-MEL-5 melanoma
  TGI: > 100000 nM
SK-MEL-28 melanoma
  TGI: > 100000 nM
NCI-H23 lung
  TGI: > 100000 nM
SNB-75 CNS
  TGI: > 100000 nM
A498 renal
  TGI: > 100000 nM
SK-OV-3 ovarian
  TGI: 25000 nM
M19-MEL melanoma
  TGI: > 100000 nM
K-562 leukemia
  TGI: > 100000 nM
TK-10 renal
  TGI: > 100000 nM
KM12 colon
  TGI: > 100000 nM
RXF 393 renal
  TGI: > 100000 nM
SF-539 CNS
  TGI: > 100000 nM
UACC-257 melanoma
  TGI: > 100000 nM
SF-268 CNS
  TGI: > 100000 nM
SF-295 CNS
  TGI: > 100000 nM
HCT-15 colon
  TGI: > 100000 nM
ACHN renal
  TGI: > 100000 nM
UO-31 renal
  TGI: > 100000 nM
DMS 273 small cell lung
  TGI: 29500 nM
HL-60(TB) leukemia
  TGI: 8520 nM
NCI-H460 lung
  TGI: > 100000 nM
UACC-62 melanoma
  TGI: 21400 nM
SW-620 colon
  TGI: > 100000 nM
EKVX NSCLC
  TGI: > 100000 nM
SK-MEL-2 melanoma
  TGI: > 100000 nM
MOLT-4 leukemia
  TGI: > 100000 nM
HOP-62 NSCLC
  TGI: > 100000 nM
OVCAR-3 ovarian
  TGI: > 100000 nM
SN12C renal
  TGI: > 100000 nM
HCT-116 colon
  TGI: > 100000 nM
M14 melanoma
  TGI: > 100000 nM
OVCAR-5 ovarian
  TGI: > 100000 nM
OVCAR-8 ovarian
  TGI: > 100000 nM
DLD-1 colon
  TGI: > 100000 nM
CAKI-1 renal
  TGI: > 100000 nM
HT29 colon
  TGI: > 100000 nM

## COc1cccc2c1C(=O)c1c(O)c3c(c(O)c1C2=O)CC(O)(C(O)CO)CC3OC1CC(N2CCOCC2)C(O)C(C)O1 (stereo not drawn)
HOP-18 NSCLC
  TGI: 7.97 nM
OVCAR-4 ovarian
  GI50: 14.5 nM
CCRF-CEM leukemia
  TGI: 221 nM
786-0 renal
  GI50: < 1 nM
  TGI: 148 nM and 98.9 nM
U251 CNS
  GI50: 15.5 nM
  TGI: 1260 nM and 1050 nM
XF 498 CNS
  TGI: 47.8 nM
IGROV1 ovarian
  GI50: 28.8 nM
NCI/ADR-RES ovarian
  TGI: 310 nM
HCC-2998 colon
  TGI: 3.72 nM and 30.4 nM
SNB-19 CNS
  GI50: 30.5 nM
  TGI: 139 nM and 801 nM
MALME-3M melanoma
  GI50: 13.2 nM
  TGI: 7.68 nM and 30.9 nM
NCI-H522 lung
  GI50: 26.4 nM
  TGI: 17.2 nM and 95.6 nM
SK-MEL-5 melanoma
  GI50: 17 nM
  TGI: 5.53 nM and 33.2 nM
SK-MEL-28 melanoma
  GI50: 22.1 nM
  TGI: 16.8 nM and 59.2 nM
NCI-H23 lung
  GI50: 17.4 nM
  TGI: 24.9 nM and 41.9 nM
SNB-75 CNS
  TGI: 13.1 nM and 54.9 nM
MCF7 breast
  TGI: 89.5 nM
A498 renal
  GI50: 13.9 nM
KM20L2 colon
  TGI: 94.3 nM
SNB-78 CNS
  GI50: < 1 nM
  TGI: 32.3 nM and 188 nM
HS 578T breast
  TGI: 214 nM
SK-OV-3 ovarian
  GI50: 57.9 nM
MDA-MB-435
  TGI: 56.8 nM
M19-MEL melanoma
  GI50: < 1 nM
RPMI-8226 leukemia
  GI50: 19.1 nM
  TGI: 147 nM and 486 nM
K-562 leukemia
  TGI: 1610 nM
BT-549 breast
  TGI: 206 nM
TK-10 renal
  GI50: 23.3 nM
MDA-N
  TGI: 100 nM
KM12 colon
  TGI: 114 nM
RXF 393 renal
  GI50: < 1 nM
SF-539 CNS
  GI50: 18.7 nM
  TGI: 14 nM and 74.4 nM
UACC-257 melanoma
  GI50: 19.9 nM
  TGI: 13 nM and 42.4 nM
SF-268 CNS
  GI50: 26.5 nM
  TGI: 16.6 nM and 158 nM
DMS 114 small cell lung
  GI50: < 1 nM
SF-295 CNS
  GI50: 24.3 nM
  TGI: 71.8 nM and 106 nM
HCT-15 colon
  GI50: 53.6 nM
  TGI: 515 nM and 1360 nM
ACHN renal
  TGI: 122 nM
NCI-H226 lung
  GI50: < 1 nM
UO-31 renal
  GI50: 3.98 nM and 21.3 nM
  TGI: 31.4 nM and 65.2 nM
DU-145 prostate
  TGI: 3310 nM
DMS 273 small cell lung
  TGI: 10.9 nM and 42.9 nM
HL-60(TB) leukemia
  GI50: 35.2 nM and 25.1 nM
  TGI: 195 nM
MDA-MB-231 breast
  TGI: 243 nM
SW-620 colon
  GI50: 13.8 nM
LXFL 529 NSCLC
  TGI: 55.3 nM
EKVX NSCLC
  GI50: 30.4 nM
  TGI: 33.4 nM and 146 nM
SK-MEL-2 melanoma
  TGI: 11.7 nM
MOLT-4 leukemia
  GI50: 9.7 nM and 24.3 nM
  TGI: 205 nM and 185 nM
HOP-62 NSCLC
  GI50: 26.2 nM
  TGI: 56.6 nM and 81 nM
OVCAR-3 ovarian
  GI50: 32.3 nM
SN12C renal
  GI50: 18.6 nM
HCT-116 colon
  TGI: 143 nM
A549 NSCLC
  TGI: 472 nM
COLO 205 colon
  GI50: 27.8 nM
M14 melanoma
  GI50: 15.8 nM
  TGI: 28.8 nM and 38.1 nM
LOX IMVI melanoma
  GI50: 2.85 nM
  TGI: 150 nM and 58.6 nM
OVCAR-5 ovarian
  GI50: 33.1 nM
  TGI: 92.6 nM and 93.5 nM
OVCAR-8 ovarian
  TGI: 28.1 nM
CAKI-1 renal
  TGI: 33.5 nM
HOP-92 NSCLC
  GI50: 18.8 nM
  TGI: 65.2 nM
PC-3 prostate
  TGI: 144 nM
